Reference: patent publication US20220267365A1, “NOVEL PHOSPHATE ESTER COMPOUND HAVING PYRROLOPYRIMIDINE SKELETON OR PHARMACEUTICALLY ACCEPTABLE SALT THEREOF” (TAIHO PHARMACEUTICAL CO., LTD., priority 2019, published 2022)

Experiments:
Format in all cases: cell-based
[1] = tested on: HCC827; test: Test Example 4 growth suppression activity, CellTiter-Glo; conditions: 72 h; HCC827, Human lung cancer, 3 days
Description: (§1) Human tumor cell lines different in type were suspended in mediums, seeded in individual wells of a multi-well plate and cultured. On the day after initiation of culture, serially diluted solutions of a compound were added. Culture was carried out for further 3 days. Cells were counted by a CellTiter-Glo (manufactured by Promega KK) in accordance with the protocol recommended by Promega KK. Cell viability was calculated in accordance with the equation shown below and the concentration (IC50 (nM)) of the compound at which 50% of cell growth is inhibited was obtained.
(§2) Cell viability (%)=(T/C)×100
(§3) T: Intensity of light emitted from a well containing a compound
(§4) C: Intensity of light emitted from a well containing no compound

[2] = tested on: H1650; test: as above; conditions: NCI-H1650, 72 h; H1650, Human lung cancer, 3 days
Description: as §1, §2, §3, §4

[3] = tested on: H358; test: as above; conditions: NCI-H358, 72 h; H358, Human lung cancer, 3 days
Description: as §1, §2, §3, §4

[4] = tested on: A431; test: as above; conditions: A-431, 72 h; A431, Human epidermoid carcinoma, 3 days
Description: as §1, §2, §3, §4

[5] = tested on: A549; test: as above; conditions: 72 h; A549, Human lung cancer, 3 days
Description: as §1, §2, §3, §4

[6] = tested on: SK-BR-3; test: as above; conditions: 72 h; SK-BR-3, Human breast cancer, 3 days
Description: as §1, §2, §3, §4

[7] = tested on: H2122; test: as above; conditions: NCI-H2122, 72 h; H2122, Human lung cancer, 3 days
Description: as §1, §2, §3, §4

[8] = tested on: human brain tumor cell line (U-87 MG); test: Test Example 9: combinational effect of compound and temozolomide (TMZ), crystal violet cell viability; conditions: any order (same-day, compound first, TMZ first), Student's t-test
Description: A human brain tumor cell line (U-87 MG) was suspended in a medium, seeded in individual wells of a multi-well plate and cultured. In the case where two compounds are simultaneously added, both compounds were added on two days after initiation of culture. In the case where addition of the compound of the present invention preceded, a serially diluted solution of the compound was added on the day after initiation of culture and a serially diluted solution of TMZ was added two days after initiation of culture. In the case where addition of TMZ preceded, a serially diluted solution of TMZ was added on the day after initiation of culture and a serially diluted solution of the compound was added on two days after initiation of culture. Day 5 after seeding, cells were fixed with a 25% aqueous solution of glutaraldehyde and stained with a staining fluid (0.05 w/v % crystal violet in 20% methanol). After an extract (0.1 N NaH2PO4:100% ethanol=1:1) was added and stirred, an absorbance at 540 nm was measured to obtain a cell count. The cell viability was calculated in accordance with the following equation and statistically processed in accordance with a Student's t-test.
as §2
T: Absorbance of a well containing TMZ or a compound
C: Absorbance of a well containing neither TMZ nor a compound

[9] = tested on: human brain tumor cell line (U-87 MG); test: Test Example 8: combination use of compound and radiation, crystal violet cell viability; conditions: any order (same-day, compound first, radiation first), Student's t-test
Description: A human brain tumor cell line (U-87 MG) was suspended in a medium, seeded in individual wells of a multi-well plate and cultured. In the case where radiation exposure and addition of a compound are simultaneously carried out, both treatments were carried out on two days after initiation of culture. In the case where addition of a compound preceded radiation exposure, a serially diluted solution of a compound was added on the day after initiation of culture and radiation exposure was carried out on two days after initiation of culture. In the case where radiation exposure preceded addition of a compound, radiation exposure was carried out on the day after initiation of culture and a serially diluted solution of a compound was added on the two days after initiation of culture. Day 5 after seeding, cells were fixed with a 25% aqueous solution of glutaraldehyde and stained with a staining fluid (0.05 w/v % crystal violet in 20% methanol). After an extract (0.1 N NaH2PO4: 100% ethanol=1:1) was added and stirred, an absorbance at 540 nm was measured to obtain a cell count. The cell viability was calculated in accordance with the following equation and statistically processed in accordance with a Student's t-test.
as §2
T: Absorbance of a well exposed to radiation or containing a compound
C: Absorbance of a well neither exposed to radiation nor containing a compound

IC50 [1]: 0.176 µM
IC50 [2]: 0.008 µM
IC50 [3]: 0.052 µM
IC50 [4]: 0.018 µM
IC50 [5]: 0.014 µM
IC50 [6]: 0.023 µM
IC50 [7]: 0.009 µM
Compound: Nc1ncnc2c1c(I)cn2[C@@H]1O[C@H](CO)[C@@H](O)[C@@H]1F [Comparative Example 2, (2R,3R,4S,5R)-5-(4-amino-5-iodo-7H-pyrrolo[2,3-d]pyrimidin-7-yl)-4-fluoro-2-(hydroxymethyl) tetrahydrofuran-3-ol]
cell viability, combination treatment with TMZ compared to the single treatments [8]: significant decrease
cell viability, combination treatment with radiation exposure compared to the single treatments [9]: significantly decreased
